Read-outs that look alike come from different tables or passages of the source. Marks after values point to notes of the source that are not given here.
How the values were obtained:
[1] = test system: S. aureus; parameters: method as in PMID 33236626; conditions: cited from earlier work
[2] = test system: E. coli; format: cell-based, Escherichia coli (wild type W2110); conditions: 18 h
Experimental: (§1) Two Gram-negative bacterial strains, namely Escherichia coli (wild type W2110) and Pseudomonas aeruginosa (wild type PK01) and Gram-positive strain, […] (ATCC 29213) were obtained from the Department of Biotechnology and Bioinformatics at Korea University.
(§2) The broth microdilution assay was used to test the antimicrobial activity of AMPs, as previously reported. Briefly, bacteria were grown to mid-logarithmic growth phase in Mueller Hinton Broth (MHB) media at 37 °C. Then, in 96-well plates, 50 µL of peptide solution (0–320 µM) diluted using a 2-fold serial dilution method was mixed with an equal volume of bacterial solution (3 × 10^6 CFU/mL) and incubated for 18 h at 37 °C with shaking at 200 rpm. The negative control was the culture medium itself. […] The assay was performed in triplicate.

[3] = test system: P. aeruginosa; format: cell-based, Pseudomonas aeruginosa (wild type PK01); conditions: 18 h
Experimental: as §1, §2

[4] = test system: S. aureus; format: cell-based, Staphylococcus aureus (ATCC 29213); conditions: 18 h
Experimental: as §1, §2

[5] = test system: E. coli (after trypsin treatment of AMP); experiment: Residual antibacterial activity after trypsin treatment; conditions: 300 μM in 1× PBS, 0.025% trypsin, 37 °C, 3 min, stopped with FBS; overnight culture, OD600; N = 3
Experimental: (§3) The absorbance value of the bacteria in the absence of AMP was used as the negative control. The absorbance value of the bacteria grown in the presence of trypsinized AMP was subtracted from that of the negative control, and the resulting difference was expressed as a percentage fraction of the negative control, yielding the residual antibacterial activity of AMP after trypsin treatment (Figure 6a).
(§4) Free AMP or AMP@Si was dissolved in 1 × PBS at a concentration of 300 μM and left at 37 °C for 3 min in the presence of 0.025% trypsin, followed by the addition of fetal bovine serum (FBS) to stop the activity of trypsin. Bacteria were incubated overnight with each trypsinized peptide formula, and broth absorbance was measured at 600 nm. As a negative control, the absorbance of the strain grown in the absence of the peptide was set. To determine the remaining antimicrobial activity of AMP after treatment of trypsin, the absorbance of the sample treated with AMP was subtracted from the absorbance of the negative control. The resulting difference was then expressed as a percentage of the absorbance of the negative control.
(§5) (a) The residual antibacterial activity was calculated by taking the difference in optical density at 600 nm between the negative control and the sample containing the trypsinized AMP. It was then divided by the optical density of the negative control and multiplied by 100. Each bacterial solution grown in a medium without AMP is used as a corresponding negative control. […] The image is a 10,000× magnification, the inside image is a 20,000× magnification, and the scale bar represents 1 µm.

[6] = test system: P. aeruginosa (after trypsin treatment of AMP); experiment: as above; conditions: 300 μM in 1× PBS, 0.025% trypsin, 37 °C, 3 min, stopped with FBS; overnight culture, OD600; N = 3
Experimental: as §3, §4, §5

[7] = test system: S. aureus (after trypsin treatment of AMP); experiment: as above; conditions: 300 μM in 1× PBS, 0.025% trypsin, 37 °C, 3 min, stopped with FBS; overnight culture, OD600; N = 3
Experimental: as §3, §4, §5

[8] = test system: sheep red blood cells (RBCs); experiment: Hemolytic activity assay; format: cell-based; conditions: at 77.5 μM (free peptides: up to 77.5 μM); 37 °C, 1 h, A570, 100% = 1% Triton X-100; N = 3
Experimental: Free peptides and silica particles loaded with them (AMP@Si) were compared for their cytotoxicity against mouse macrophages (Raw264.7 cells) and their hemolytic activity against RBCs. Free AMP or AMP@Si was added to each well of a 96-well plate in 2-fold serial dilutions to 50 μL with DMEM medium containing 10% FBS and 1% antibiotics. Raw264.7 macrophages at a concentration of 4 × 10^4 cells per 50 μL were added to the wells containing the peptide to give a final volume of 100 μL. Cell proliferation was confirmed by MTS assay (Promega, Madison, WI, USA) after 24 h or 5 days of incubation. The MTS tetrazolium compound was reduced by viable cells to generate a colored formazan product. […] To calculate cell viability, the absorbance of cells treated with the peptide was divided by the absorbance of cells that were not treated with the peptide. The resulting quotient was then expressed as a percentage. […] The supernatant (100 μL) was collected after centrifugation at 1000× g for 5 min, and the absorbance (A) was measured at 570 nm. The value of “zero hemolysis” was determined by the absorbance of PBS alone, and 100% hemolysis was determined by the absorbance of the supernatant obtained from 1% (v/v) Triton X-100-treated RBCs. The percentage of hemolysis was calculated as hemolysis (%) = (AAMP − APBS)/(ATriton − APBS) × 100. […]

[9] = test system: Raw264.7 cells; experiment: Cytotoxicity, MTS assay; format: cell-based, mouse; conditions: for Cell viability: 24 h, MTS, N = 3
Experimental: Free peptides and silica particles loaded with them (AMP@Si) were compared for their cytotoxicity against mouse macrophages (Raw264.7 cells) and their hemolytic activity against RBCs. Free AMP or AMP@Si was added to each well of a 96-well plate in 2-fold serial dilutions to 50 μL with DMEM medium containing 10% FBS and 1% antibiotics. Raw264.7 macrophages at a concentration of 4 × 10^4 cells per 50 μL were added to the wells containing the peptide to give a final volume of 100 μL. Cell proliferation was confirmed by MTS assay (Promega, Madison, WI, USA) after 24 h or 5 days of incubation. The MTS tetrazolium compound was reduced by viable cells to generate a colored formazan product. The intensity of the color at 490 nm is proportional to the number of viable cells in the sample. To calculate cell viability, the absorbance of cells treated with the peptide was divided by the absorbance of cells that were not treated with the peptide. The resulting quotient was then expressed as a percentage. […] The supernatant (100 μL) was collected after centrifugation at 1000× g for 5 min, and the absorbance (A) was measured at 570 nm. The value of “zero hemolysis” was determined by the absorbance of PBS alone, and 100% hemolysis was determined by the absorbance of the supernatant obtained from 1% (v/v) Triton X-100-treated RBCs. The percentage of hemolysis was calculated as hemolysis (%) = (AAMP − APBS)/(ATriton − APBS) × 100.
Figure 7 The hemolytic activity and cytotoxicity of AMPs. […] (b) The cytotoxicity of AMP was measured 24 h after the addition of each indicated concentration of AMP to Raw264.7 cells grown overnight. Cell survival is expressed as a percentage of the negative control grown without AMP.
Figure S4. […] The cytotoxicity of AMP was measured 5 days after incubation of Raw 264.7 cells (4 x 10^5 cells/ mL) in the presence of each indicated concentration of AMP Cell survival was expressed as a percentage of the negative control grown without AMP. […]

[10] = free peptide, MHB, 2-fold dilution 0–320 µM, 37 °C, OD600, mean ± standard error of three replicate experiments

## YGRKKRRQRRKRIVQRIKDFLR [TAT-KR-12, literature peptide developed for treatment of intracellular S. aureus infection]
[1]
  Antibacterial activity against S. aureus: enhanced antibacterial activity

## Ac-RKKRRQRRRGSSKRIVQRIKDFLR-NH2 [CPP-KR12]
[2]; [10]
  Minimum inhibitory concentration (MIC): 12.09 ± 4.97 µM
[3]; [10]
  Minimum inhibitory concentration (MIC): 6.12 ± 3.72 µM
[4]; [10]
  Minimum inhibitory concentration (MIC): 22.80 ± 8.48 µM
[5]
  Residual antibacterial activity after trypsin treatment: approximately 10%
[6]
  Residual antibacterial activity after trypsin treatment: approximately 15%
[7]
  Residual antibacterial activity after trypsin treatment: approximately 15%
[8]
  Hemolysis: less than 1%
[9]; 6 µM
  Cytotoxicity: not cytotoxic
[9]; 19.38 μM
  Cell viability: 80%
[9]; 77.5 μM
  Cell viability: 10%
other
  entrapment efficiency (EE): 95%

## Ac-KRIVQRIKDFLR-NH2 [KR12, reference compound]
[2]
  Minimum inhibitory concentration (MIC): 103.36 ± 25.82 µM
[3]
  Minimum inhibitory concentration (MIC): 181.98 ± 68.20 µM
[4]
  Minimum inhibitory concentration (MIC): >320 ^a µM
[8]
  Hemolysis: less than 1%

## CC(=O)N[C@@H](CCCNC(=N)N)C(=O)N[C@@H](CCCCN)C(=O)N[C@@H](CCCCN)C(=O)N[C@@H](CCCNC(=N)N)C(=O)N[C@@H](CCCNC(=N)N)C(=O)N[C@@H](CCC(N)=O)C(=O)N[C@@H](CCCNC(=N)N)C(=O)N[C@@H](CCCNC(=N)N)C(=O)N[C@@H](CCCNC(=N)N)C(N)=O
other
  entrapment efficiency (EE): 95%
